Assay results taken from ChEMBL document CHEMBL1201862, “PubChem BioAssay data set” (2004).
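All cell lines were grown in 96-well plates and treated with compound for 48 hours. The concentration for 50% growth inhibition is given as GI50.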 The source made the active and inactive calls. Cut-off read from the data, not from the text of the source: active = GI50 up to about 1.1 µM and inactive = higher.

Tests used:
Assay in all cases: inhibition of tumour cell growth, NCI panel, 48 h
HOP-18 = system: HOP-18
XF498 = system: XF498
M19-MEL = system: M19-MEL
DMS-114 = system: DMS-114
SNB-78 = system: SNB-78
DLD-1 = system: DLD-1
LXFL 529 = system: LXFL 529
RXF 631 = system: RXF 631
KM-20L2 = system: KM-20L2

| SMILES | GI50 (HOP-18) | GI50 (XF498) | GI50 (M19-MEL) | GI50 (DMS-114) | GI50 (SNB-78) | GI50 (DLD-1) | GI50 (LXFL 529) | GI50 (RXF 631) | GI50 (KM-20L2) |
| --- | --- | --- | --- | --- | --- | --- | --- | --- | --- |
| O=c1cc(-c2ccccc2F)[nH]c2cc3c(cc12)OCO3 | 0.544 µM (active) | 1.5 µM (inactive) | 0.236 µM (active) | 0.508 µM (active) | 0.23 µM (active) | 0.0441 µM (active) | 0.0403 µM (active) |  |  |
| COc1ccc(Cc2c3cc(O)c([O-])cc3cc[n+]2C)cc1 | 36.1 µM (inactive) | 18.4 µM (inactive) | 20.7 µM (inactive) | 12.8 µM (inactive) | > 100 µM (inactive) | 10.6 µM (inactive) |  | 6.49 µM (inactive) | 51.1 µM (inactive) |
| N#CCN1C(=O)c2cc([N+](=O)[O-])cc3cc([N+](=O)[O-])cc(c23)C1=O | 64.3 µM (inactive) | 12.2 µM (inactive) | 14.3 µM (inactive) | 15.2 µM (inactive) | 16.7 µM (inactive) | 7.05 µM (inactive) | 9.23 µM (inactive) | 20 µM (inactive) | 12.9 µM (inactive) |
| O=C1c2c(c3c4ccccc4n(CC4CO4)c3c3[nH]c4ccccc4c23)C(=O)N1Cc1ccccc1 (stereo not drawn) |  | 3.7 µM (inactive) | > 100 µM (inactive) | > 100 µM (inactive) | > 100 µM (inactive) | > 10 µM (inactive) | > 100 µM (inactive) | > 100 µM (inactive) |  |
| N#CC(C#N)=CSc1ccccc1 | > 100 µM (inactive) | 53.7 µM (inactive) |  | 17.7 µM (inactive) |  | 24 µM (inactive) | 24.3 µM (inactive) | 20.6 µM (inactive) | 32.7 µM (inactive) |
| CC1=CC=C2C(C)(C)CC[C@@H]3OC(=O)[C@H]1[C@]23C | > 100 µM (inactive) | > 100 µM (inactive) | > 100 µM (inactive) | > 100 µM (inactive) | 37.1 µM (inactive) | > 100 µM (inactive) | > 100 µM (inactive) | > 100 µM (inactive) | > 100 µM (inactive) |
| Nc1nc2c(ncn2CC(CO)CC(c2ccccc2)P(=O)(O)O)c(=O)[nH]1 (stereo not drawn) | > 100 µM (inactive) | > 100 µM (inactive) | > 100 µM (inactive) | > 100 µM (inactive) | > 100 µM (inactive) | > 100 µM (inactive) | > 100 µM (inactive) |  | > 100 µM (inactive) |
| ClC/C=C/COC1CCCCO1 (stereo not drawn) | > 100 µM (inactive) | 25.2 µM (inactive) | > 100 µM (inactive) | 33.2 µM (inactive) | > 100 µM (inactive) | > 100 µM (inactive) | > 100 µM (inactive) | 34.8 µM (inactive) | > 100 µM (inactive) |
| O=C1C2C=CC(n3[nH]c(=O)n(Cc4ccccc4)c3=O)CC2C(=O)N1c1cccc(Cl)c1 (stereo not drawn) | > 100 µM (inactive) | 65.9 µM (inactive) | > 100 µM (inactive) | > 100 µM (inactive) | > 100 µM (inactive) | > 100 µM (inactive) | > 100 µM (inactive) |  | > 100 µM (inactive) |
| Clc1ccccc1C1N2CCCCC2[C@@H]2c3[nH]c4ccccc4c3CCN12 (stereo partly drawn) | 42 µM (inactive) | 19.4 µM (inactive) | 14.7 µM (inactive) | 20 µM (inactive) | 25.4 µM (inactive) | 18.9 µM (inactive) | 31 µM (inactive) |  | 18.6 µM (inactive) |
| NS(=O)(=O)c1ccc(NC2=CC(=O)C(=O)c3ccccc32)cc1 | > 100 µM (inactive) |  | > 100 µM (inactive) | 43.2 µM (inactive) | > 100 µM (inactive) | > 100 µM (inactive) | > 100 µM (inactive) |  | > 100 µM (inactive) |
| CCOC(=O)c1[nH]c(COC(C)=O)c(CCCOC(C)=O)c1CCCOC(C)=O |  | > 100 µM (inactive) |  |  | > 100 µM (inactive) |  | > 100 µM (inactive) |  | > 100 µM (inactive) |
| CN1C(=O)N(c2nc3ccccc3[nH]2)C(C)(C)C1=O | > 100 µM (inactive) | > 100 µM (inactive) | > 100 µM (inactive) | > 100 µM (inactive) | > 100 µM (inactive) | > 100 µM (inactive) | > 100 µM (inactive) |  | > 100 µM (inactive) |
| CCOC(=O)/C(ON)=C(/CC/C(C(=O)OC)=C(\ON)C(=O)OCC)C(=O)OC | > 100 µM (inactive) | > 100 µM (inactive) | > 100 µM (inactive) | > 100 µM (inactive) | > 100 µM (inactive) | > 100 µM (inactive) | > 100 µM (inactive) | > 100 µM (inactive) | > 100 µM (inactive) |
| O=c1c2ccccc2nc(-c2cccc(Cl)c2)n1NCC1(O)OCC(O)C(O)C1O (stereo not drawn) |  |  | > 100 µM (inactive) | > 100 µM (inactive) | > 100 µM (inactive) |  | 93.1 µM (inactive) | 66.5 µM (inactive) | > 100 µM (inactive) |
| COc1ccc(/C=C/c2nnc(S)[nH]2)cc1OC |  | > 100 µM (inactive) | > 100 µM (inactive) | > 100 µM (inactive) | > 100 µM (inactive) | > 100 µM (inactive) | > 100 µM (inactive) |  | > 100 µM (inactive) |
| COC(=O)N/N=C(/CCC(=O)Nc1ccc(C)c(C)c1)CC(=O)C(C)(C)C | > 100 µM (inactive) | > 100 µM (inactive) | > 100 µM (inactive) | > 100 µM (inactive) |  | > 100 µM (inactive) | > 100 µM (inactive) |  | > 100 µM (inactive) |
| CC1=CC(=O)CC2(C)CC[C@@H]3C[C@]12OC3(C)C (stereo partly drawn) | > 100 µM (inactive) | > 100 µM (inactive) | > 100 µM (inactive) | > 100 µM (inactive) | > 100 µM (inactive) | > 100 µM (inactive) | > 100 µM (inactive) |  | > 100 µM (inactive) |
| CCOC(=O)C1=C(C)N(c2ccc(C)cc2)C2=C(C(=O)N(c3ccccc3)C2c2ccccc2)C1c1ccccc1 (stereo not drawn) |  | > 25 µM (inactive) | > 25 µM (inactive) | 17.9 µM (inactive) |  | 12.3 µM (inactive) | 20 µM (inactive) | > 25 µM (inactive) | > 25 µM (inactive) |
| O=C1C(Cl)C(c2cc(Br)cc(Br)c2O)N1n1cnc2ccccc2c1=O (stereo not drawn) | 24.5 µM (inactive) | 23.3 µM (inactive) | 16.7 µM (inactive) |  | 20.7 µM (inactive) | 8.87 µM (inactive) | 21 µM (inactive) |  | 32.5 µM (inactive) |
| CCCOP(=S)(N1CC1)N1CC1 | 40.7 µM (inactive) | > 100 µM (inactive) | > 100 µM (inactive) | > 100 µM (inactive) | > 100 µM (inactive) | > 100 µM (inactive) |  |  | > 100 µM (inactive) |
| N=C1NC(=O)N2CC12 (stereo not drawn) [IMEXON] | > 100 µM (inactive) | > 100 µM (inactive) |  | > 100 µM (inactive) |  | > 100 µM (inactive) | > 100 µM (inactive) |  | > 100 µM (inactive) |
| N#CC(C(=O)Nc1ccccc1)C1=C(Cl)C(=O)c2ccccc2C1=O (stereo not drawn) | 10.7 µM (inactive) | 16.7 µM (inactive) | 7.66 µM (inactive) | 17.8 µM (inactive) | 20.1 µM (inactive) | 17.1 µM (inactive) | 19.9 µM (inactive) |  | 23 µM (inactive) |
| CN(C)/C=C/C(=O)c1cccc(C(=O)/C=C/N(C)C)n1 | > 100 µM (inactive) | > 100 µM (inactive) | > 100 µM (inactive) |  | > 100 µM (inactive) | > 100 µM (inactive) | > 100 µM (inactive) |  | > 100 µM (inactive) |
